Consider one compound from PMC6831285, “TMTP1-modified Indocyanine Green-loaded Polymeric Micelles for Targeted Imaging of Cervical Cancer and Metastasis Sentinel Lymph Node in vivo” (Theranostics, 2019).

A short description of data set [1]: Photostability under visible light. It counts as physicochemical. The conditions noted are these: after 1 day of exposure to visible light, 10 μg/mL. As to the method: The effect of the light exposure on the degradation of ITM or IM was determined with visible light at room temperature. The ICG and ICG-loaded micelles were diluted with distilled water to a final concentration of 10 μg/mL and were loaded into a 12-well plate. The fluorescence intensity was measured for up to 6 days. After incubation, the remaining fluorescence of each sample was measured using a spectrofluorometer with excitation and emission wavelengths of 745 nm and 840 nm, respectively. For the quantitative analysis, we normalized the fluorescence signal intensity.

Data set [2] can be described thus: Plasma pharmacokinetic study. The class given is in vivo, BALB/c-nude mice. The conditions noted are these: 0.5 mg/kg ICG. As to the method: Normal BALB/c-nude mice were administered intravenously with ITM or free ICG solution at an dose of 10 μg, respectively. At designed time points of 5 min, 10 min, 30 min, 1 h, 2 h, 3 h, 4 h, 8 h and 12 h post- injection, […] blood samples were collected into EDTA tubes and centrifuged at 6000 rpm for 10 min to obtain plasma. A fluorescence spectrophotometer with excitation and emission wavelengths of 745 nm and 840 nm was used to measure the ICG of the supernatant. The ICG content in the plasma was then assayed.

Another data set deals with popliteal (PO) LN. Put plainly: NIR fluorescence LN imaging of normal mice. It counts as in vivo, BALB/c nude mice. Particulars: intradermal injection into right paw, ICG 1.0 mg/kg. On the procedure: For the SLN metastasis model, 1 × 10^7 HeLa-luc cells in 15 μL PBS were injected into the right hock of 5-week-old BALB/c-nude mice. The mice were monitored by BLI weekly to detect tumor metastases. After 1 month, tumor was about 5 mm with PO LN metastasis. HeLa-bearing mice were divided two groups randomly (n=10) and injected ITM and IM micelles via foot at equivalent ICG dose of 2 μg. At designed time points (5 min, 30 min, 1 h, 12 h and 24 h), the NIR fluorescence images in vivo were obtained. At 30 min and 1 h post injection, 2 mice from each group were randomly sacrificed and the excised main LNs were imaged. After 24 h post injection, LNs and main organs (heart, liver, spleen, lung, and kidney) were handled as described. In the same way, normal mice were divided into two groups randomly (n=5) and injected intradermally ITM or IM via foot. The NIR fluorescence images were acquired as mentioned above.

As for `CC1(C)C(/C=C/C=C/C=C/C=C2\N(CCCCS(=O)(=O)O)c3ccc4ccccc4c3C2(C)C)=[N+](CCCCS(=O)(=O)[O-])c2ccc3ccccc3c21` [Free ICG, indocyanine green], the “fluorescence intensity remaining, of initial value” in data set [1] is on record as “less than 50%”. Besides, in data set [2] (BALB/c-nude, mouse, iv), the peak level (Cmax) was 134 ng/mL, the MRT is 268 min, the Tmax is 5 min and the clearance came out at 18 mL/min/kg. This compound gave a half-life in data set [2] (BALB/c-nude, mouse, iv) of 4 min. Moreover, the AUC(0-t) in data set [2] (BALB/c-nude, mouse, iv, read-out: AUC (0-12 h) in plasma (converted)) was 224 ng·h/mL. Also, the V in data set [2] (i.v.) was determined as 21.358 L/kg. In addition, the “time within which the NIR fluorescence signal in SLN decreased quickly” value with popliteal (PO) LN was ≤ 1 h.

The Cmax is the maximum level reached in the sampled fluid or tissue. In general, MRT refers to a mean duration of stay, worked out from the concentration-time curve. One may read the Tmax as the time from dosing to the highest level. By clearance is commonly meant the volume of plasma or blood freed of the substance per unit of time. One may read the half-life as how long it takes for the measured level to halve. Higher therefore signals slow loss.
